Source: publication PMC5059851, “Inhibition of Hedgehog-dependent tumors and cancer stem cells by a newly identified naturally occurring chemotype” (Cell Death & Disease, 2016)

Tested on: Hh target genes (Gli1 and others) in Ptch1^−/− MEFs
Assay: qRT-PCR of endogenous Hh target genes in Ptch1−/− MEFs
Assay type: cell-based, mouse
Settings: 5 μM, 48 h
Source text: For this reason, we focused further studies only on 12. To investigate the inhibitory properties of 12 on Hh pathway, we analyzed endogenous Hh target gene activation in genetically defined Ptch1^−/− mouse embryonic fibroblasts (Ptch1^−/− MEFs) (Figure 2a). In these cells, constitutive activation of the Hh pathway is the consequence of the loss of repressive receptor Ptch1 gene, thus determining high expression levels of Hh target.
Figure 2 Compound 12 inhibits Hh signaling without affecting AP1/Jun and WNT/β-Catenin pathways. (a) The graphs show the Hh target genes expression levels in Ptch1^−/− MEFs treated for 48 h with 12 or DMSO as control. mRNA levels were determined by quantitative real-time PCR (qRT-PCR) normalized to endogenous control (β2-microglobulin and HPRT). Pfkfb3 gene was used as negative control. *P<0.05 versus CTR. […]
Total RNA was isolated with Trizol (Invitrogen/Life Technologies, Carlsbad, CA, USA) and reverse transcribed with SensiFAST cDNA Synthesis Kit (Bioline Reagents Limited, London, UK). Quantitative real-time PCR (Q-PCR) analysis of Gli1, Gli2, Ptch1, Bmp2, Pfkfb3, CycD1, CycD2, Pcna, Oct4, Nanog, β-2 microglobulin, β-actin and HPRT mRNA expression was performed on each cDNA sample using the VIIA7 Real Time PCR System employing Assay-on-Demand Reagents (Life Technologies). […]

SMILES: COc1ccc(C=CC(=O)c2cc(OC)c(OC)cc2OC)cc1OC [Compound 12, 3-(3,4-dimethoxy-phenyl)-1-(2,4,5-trimethoxy-phenyl)-2-propen-1-one]
- mRNA levels of endogenous Hh target genes, including Gli1: significantly reduced
